Results published in patent US20240368135A1 (VERTEX PHARMACEUTICALS INCORPORATED, priority 2021, published 2024).
Where two headings read alike, the source gives them in different places.

Biological target: human NaV 1.8 (Homo sapiens, UniProt Q9Y5Y9)
Assay: E-VIPR assay detecting and measuring NaV inhibition properties
Assay type: cell-based
Conditions: HEK cells expressing truncated human NaV 1.8
How it was run: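 Membrane potential was followed by coumarin/oxonol FRET during electrical field stimulation of matrigel-seeded HEK cells carrying truncated human NaV1.8 plus KIR2.1. Dosing used 11 points, 3-fold steps, top 300 nM final, 0.625% DMSO, with or without 25% human serum.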

[1] = no human serum, read-out: IC50 in the E-VIPR Assay
[2] = in the presence of human serum (compound numbers followed by *), read-out: IC50 in the E-VIPR Assay, performed in the presence of human serum

human NaV 1.8, sequence (Q9Y5Y9 126-399 limits assumed): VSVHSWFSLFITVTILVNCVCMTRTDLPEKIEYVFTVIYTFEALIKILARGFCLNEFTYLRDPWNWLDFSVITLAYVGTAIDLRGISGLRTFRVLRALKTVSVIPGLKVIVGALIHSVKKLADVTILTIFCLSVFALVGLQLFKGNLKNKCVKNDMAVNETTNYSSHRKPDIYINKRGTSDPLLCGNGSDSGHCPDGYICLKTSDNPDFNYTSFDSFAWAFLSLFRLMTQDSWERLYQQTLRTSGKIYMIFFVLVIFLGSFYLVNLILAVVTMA
human NaV 1.8, sequence (Q9Y5Y9 660-890 limits assumed): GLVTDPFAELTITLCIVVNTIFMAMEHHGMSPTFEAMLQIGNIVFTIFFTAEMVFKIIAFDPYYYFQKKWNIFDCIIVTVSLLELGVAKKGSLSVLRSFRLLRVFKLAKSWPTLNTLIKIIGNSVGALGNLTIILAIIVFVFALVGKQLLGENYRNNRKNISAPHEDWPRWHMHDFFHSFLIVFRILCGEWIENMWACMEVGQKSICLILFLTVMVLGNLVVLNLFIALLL
human NaV 1.8, sequence (Q9Y5Y9 1148-1722 limits assumed): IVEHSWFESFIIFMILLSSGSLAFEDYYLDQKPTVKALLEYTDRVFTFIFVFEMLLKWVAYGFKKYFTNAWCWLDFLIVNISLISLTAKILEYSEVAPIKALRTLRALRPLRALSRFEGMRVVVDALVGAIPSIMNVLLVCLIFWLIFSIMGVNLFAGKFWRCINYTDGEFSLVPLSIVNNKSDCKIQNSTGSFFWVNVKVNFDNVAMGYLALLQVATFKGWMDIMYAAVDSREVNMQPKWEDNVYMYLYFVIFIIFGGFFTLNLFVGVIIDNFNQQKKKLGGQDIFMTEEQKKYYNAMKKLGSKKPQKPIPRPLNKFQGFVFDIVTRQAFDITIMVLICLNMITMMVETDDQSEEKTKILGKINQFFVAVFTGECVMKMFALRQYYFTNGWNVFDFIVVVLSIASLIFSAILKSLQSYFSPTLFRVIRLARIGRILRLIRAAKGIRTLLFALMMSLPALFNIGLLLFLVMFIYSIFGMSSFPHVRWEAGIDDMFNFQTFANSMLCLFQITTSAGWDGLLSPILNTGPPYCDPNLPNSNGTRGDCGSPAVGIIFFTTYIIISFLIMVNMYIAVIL

`COc1c([C@H]2[C@H](C(=O)Nc3cnc4c(c3)CCC4O)O[C@@](C)(C(F)(F)F)[C@H]2C)ccc(F)c1F` (single isomer, unassigned) [Compound 433, rel-(2R*,3S*,4S*,5R*)-3-(3,4-difluoro-2-methoxyphenyl)-N-(7-hydroxy-6,7-dihydro-5H-cyclopenta[b]pyridin-3-yl)-4,5-dimethyl-5-(trifluoromethyl)tetrahydrofuran-2-carboxamide] was tested, and the IC50 [1] was 0.1 to 1 µM.
`COc1c([C@H]2[C@H](C(=O)Nc3cc(C(O)CCO)ncc3F)O[C@@](C)(C(F)(F)F)[C@H]2C)ccc(F)c1F` (single isomer, unassigned) [Compound 256, rel-(2R*,3S*,4S*,5R*)-3-(3,4-difluoro-2-methoxyphenyl)-N-(2-(1,3-dihydroxypropyl)-5-fluoropyridin-4-yl)-4,5-dimethyl-5-(trifluoromethyl)tetrahydrofuran-2-carboxamide] was tested, and the IC50 [1] was < 0.01 µM.
`COc1c(C2C(C(=O)Nc3ccc(C(N)=O)nc3)OC(C)(C(F)(F)F)C2C)ccc(C(F)F)c1F` (stereo not shown) [Compound 158, 5-[[3-[4-(difluoromethyl)-3-fluoro-2-methoxy-phenyl]-4,5-dimethyl-5-(trifluoromethyl)tetrahydrofuran-2-carbonyl]amino]pyridine-2-carboxamide] was tested, and the IC50 [1] was 0.01 to 0.1 µM.
`C[C@H]1[C@@H](c2ccc(F)c(F)c2OC(F)F)[C@H](C(=O)Nc2ccn(C)c(=O)c2)O[C@@]1(C)C(F)(F)F` (single isomer, unassigned) [Compound 78] was tested, and the IC50 [1] was < 0.01 µM.
`COc1c(C2C(C(=O)Nc3cccc(P(C)(C)=O)c3)OC(C)(C(F)(F)F)C2C)ccc(F)c1F` (single isomer, unassigned) [Compound 41, 3-(3,4-difluoro-2-methoxy-phenyl)-N-(3-dimethylphosphorylphenyl)-4,5-dimethyl-5-(trifluoromethyl)tetrahydrofuran-2-carboxamide] was tested, and the IC50 [1] was ≥ 1 µM.
With `Cc1nocc1NC(=O)[C@@H]1O[C@@](C)(C(F)(F)F)[C@@H](C)[C@H]1c1ccc(F)c(F)c1OC[C@@H](C)N1CC2(COC2)C1` [Compound 624, (2R,3S,4S,5R)-3-[3,4-difluoro-2-[(2R)-2-(2-oxa-6-azaspiro[3.3]heptan-6-yl)propoxy]phenyl]-4,5-dimethyl-N-(3-methylisoxazol-4-yl)-5-(trifluoromethyl)tetrahydrofuran-2-carboxamide] the IC50 [1] was 0.1 to 1 µM.
In the case of `COc1c([C@H]2[C@H](C(=O)Nc3cc(C(C)(C)O)ncn3)O[C@@](C)(C(F)(F)F)[C@H]2C)ccc(F)c1F` [Compound 389, (2R,3S,4S,5R)-3-(3,4-difluoro-2-methoxy-phenyl)-N-[6-(1-hydroxy-1-methyl-ethyl)pyrimidin-4-yl]-4,5-dimethyl-5-(trifluoromethyl)tetrahydrofuran-2-carboxamide], the IC50 [1] is reported as 0.01 to 0.1 µM.
With `C[C@H]1[C@@H](c2ccc(F)c(F)c2OCCO)[C@H](C(=O)Nc2ccon2)O[C@@]1(C)C(F)(F)F` [Compound 556, (2R,3S,4S,5R)-3-(3,4-difluoro-2-(2-hydroxyethoxy)phenyl)-N-(isoxazol-3-yl)-4,5-dimethyl-5-(trifluoromethyl)tetrahydrofuran-2-carboxamide] the IC50 [1] was 0.1 to 1 µM.
`C[C@@H]1[C@H](c2ccc(F)c(F)c2OC(F)F)[C@@H](C(=O)Nc2ccnc(C(O)CO)c2)O[C@]1(C)C(F)(F)F` (single isomer, unassigned) [Compound 81] showed an IC50 [1] of 0.1 to 1 µM.
Work on `COc1c([C@H]2[C@H](C(=O)Nc3ccc(C(N)=O)[n+]([O-])c3)O[C@@](C)(C(F)(F)F)[C@H]2C)ccc(F)c1F` [Compound 2, 2-carbamoyl-5-((2R,3S,4S,5R)-3-(3,4-difluoro-2-methoxyphenyl)-4,5-dimethyl-5-(trifluoromethyl)tetra hydrofuran-2-carboxamido)pyridine 1-oxide] yielded an IC50 [1] of 0.01 to 0.1 µM.
`COc1c([C@H]2[C@H](C(=O)Nc3ccc4nc(C(=O)NCCO)cn4c3)O[C@@](C)(C(F)(F)F)[C@H]2C)ccc(F)c1F` [Compound 260, 6-((2R,3S,4S,5R)-3-(3,4-difluoro-2-methoxyphenyl)-4,5-dimethyl-5-(trifluoromethyl)tetrahydrofuran-2-carboxamido)-N-(2-hydroxyethyl)imidazo[1,2-a]pyridine-2-carboxamide] was tested, and the IC50 [1] was 0.01 to 0.1 µM.
In the case of `COCc1cc(CNC(=O)[C@@H]2O[C@@](C)(C(F)(F)F)[C@@H](C)[C@H]2c2ccc(F)c(F)c2OC)n[nH]1` [Compound 288, (2R,3S,4S,5R)-3-(3,4-difluoro-2-methoxyphenyl)-N-((5-(methoxymethyl)-1H-pyrazol-3-yl)methyl)-4,5-dimethyl-5-(trifluoromethyl)tetrahydrofuran-2-carboxamide], the IC50 [1] is reported as ≥ 1 µM.
For `C[C@H]1[C@@H](c2ccc(F)c(F)c2OCCN2CC3(COC3)C2)[C@H](C(=O)Nc2ccnc(CO)c2)O[C@@]1(C)C(F)(F)F` [Compound 618, (2R,3S,4S,5R)-3-(2-(2-(2-oxa-6-azaspiro[3.3]heptan-6-yl)ethoxy)-3,4-difluorophenyl)-N-(2-(hydroxymethyl)pyridin-4-yl)-4,5-dimethyl-5-(trifluoromethyl)tetrahydrofuran-2-carboxamide], the IC50 [1] was 0.01 to 0.1 µM.
For `CNC1CC(=O)N(c2cc(NC(=O)[C@@H]3O[C@@](C)(C(F)(F)F)[C@@H](C)[C@H]3c3ccc(F)c(F)c3OC)ccn2)C1` (single isomer, unassigned) [Compound 499, rel-(2R*,3S*,4S*,5R*)-3-(3,4-difluoro-2-methoxyphenyl)-4,5-dimethyl-N-(2-(4-(methylamino)-2-oxopyrrolidin-1-yl)pyridin-4-yl)-5-(trifluoromethyl)tetrahydrofuran-2-carboxamide], the IC50 [1] was 0.01 to 0.1 µM.
`COc1c([C@H]2[C@H](C(=O)Nc3cc(C(N)C(C)(C)OC)ncc3F)O[C@@](C)(C(F)(F)F)[C@H]2C)ccc(F)c1F` (single isomer, unassigned) [Compound 356, rel-(2R*,3S*,4S*,5R*)-N-(2-(1-amino-2-methoxy-2-methylpropyl)-5-fluoropyridin-4-yl)-3-(3,4-difluoro-2-methoxyphenyl)-4,5-dimethyl-5-(trifluoromethyl)-tetrahydrofuran-2-carboxamide] was tested, and the IC50 [1] was 0.01 to 0.1 µM.
Molecule `C[C@H]1[C@@H](c2ccc(F)c(F)c2OC(F)F)[C@H](C(=O)Nc2cc(S(C)(=O)=O)c[n+]([O-])c2)O[C@@]1(C)C(F)(F)F` (single isomer, unassigned) [Compound 88] has an IC50 [2] of 0.1 to 1 µM.
`COc1c([C@@H]2C[C@](C)(C(F)(F)F)O[C@H]2C(=O)Nc2cc(C(O)CO)ncc2F)ccc(F)c1F` (single isomer, unassigned) [Compound 689] showed an IC50 [2] of 0.1 to 1 µM.
In the case of `COc1c([C@H]2[C@H](C(=O)Nc3ccc(S(C)(=N)=O)nc3)O[C@@](C)(C(F)(F)F)[C@H]2C)ccc(F)c1F` (single isomer, unassigned) [Compound 336, rel-(2R*,3S*,4S*,5R*)-3-(3,4-difluoro-2-methoxyphenyl)-4,5-dimethyl-N-(6-(S-methylsulfonimidoyl)-pyridin-3-yl)-5-(trifluoromethyl)-tetrahydrofuran-2-carboxamide], the IC50 [1] is reported as < 0.01 µM.
Molecule `C[C@H]1[C@@H](c2ccc(F)c(F)c2OCCO)[C@H](C(=O)Nc2cnsc2)O[C@@]1(C)C(F)(F)F` [Compound 572, (2R,3S,4S,5R)-3-(3,4-difluoro-2-(2-hydroxyethoxy)phenyl)-N-(isothiazol-4-yl)-4,5-dimethyl-5-(trifluoromethyl)tetrahydrofuran-2-carboxamide] has an IC50 [1] of 0.01 to 0.1 µM.
